Experimental data taken from patent US9271960B2, “Tetrahydrocarbazoles as active agents for inhibiting VEGF production by translational control” (PTC Therapeutics, Inc., priority 2004, dated 2016).

system: VEGF; assay: Hypoxia-inducible endogenous VEGF expression ELISA in HeLa cells; type: cell-based; conditions: Homo sapiens, HeLa, compounds 1-155, hypoxic conditions (1% O2), VEGF protein by ELISA, read-out: ELISA Activity
Protocol: The ability of compounds of the invention to modulate hypoxia-inducible endogenous VEGF expression is analyzed as follows. VEGF protein levels are monitored by an ELISA assay (R&D Systems). Briefly, HeLa cells are cultured for 24-48 hours under hypoxic conditions (1% O2, 5% CO2, balanced with nitrogen) in the presence or absence of a compound of the invention. The conditioned media is then assayed by ELISA, and the concentration of VEGF is calculated from the standard ELISA curve of each assay.
A dose-response analysis is performed using the ELISA assay and conditions described above. A series of different concentrations (e.g., seven) are analyzed. In parallel, a dose-response cytotoxicity assay is performed using Cell Titer Glo (Promega) under the same conditions as the ELISA to ensure that the inhibition of VEGF expression is not due to cytotoxicity. Dose-response curves are plotted using percentage inhibition versus concentration of the compound, and EC50 and CC50 values are generated for each compound with the maximal inhibition set as 100% and the minimal inhibition as 0%.
Compounds 156-188 in Table 1 are commercially available. In Table 1, each of the represented compounds is followed by one to five stars.

Structure (SMILES) | EC50
Brc1ccc2[nH]c3c(c2c1)CCc1cnoc1-3 [Compound 78, 7-Bromo-4,10-dihydro-5H-1-oxa-2,10-diaza-cyclopenta[a]fluorine] | > 1 µM
CC(C)(C)CCNC1CCCc2c1[nH]c1ccc(Br)cc21 (centres unmarked) [Compound 79, (6-Bromo-2,3,4,9-tetrahydro-1H-carbazol-1-yl)-(3,3-dimethyl-butyl)-amine] | > 1 µM
CC(C)(C)OC(=O)n1c2c(c3cc(Br)ccc31)CCCC2=O [Compound 80, 6-Bromo-1-oxo-1,2,3,4-tetrahydro-carbazole-9-carboxylic acid tert-butyl ester] | > 1 µM
O=C(Nc1ccccc1)NC1CCCc2c1[nH]c1ccc(Br)cc21 (centres unmarked) [Compound 81, 1-(6-Bromo-2,3,4,9-tetrahydro-1H-carbazol 1-yl)-3-phenyl-urea] | > 1 µM
Brc1ccc2[nH]c3c(c2c1)CCCC3 [Compound 83, 6-Bromo-2,3,4,9-tetrahydro-1H-carbazole] | > 1 µM
COc1ccc2[nH]c3c(c2c1)CCC/C3=N\O [Compound 84, 6-Methoxy-2,3,4,9-tetrahydro-carbazol-1 one oxime] | > 1 µM
O=C(O)C1CCCc2c1[nH]c1ccc(Br)cc21 (centres unmarked) [Compound 85, 6-Bromo-2,3,4,9-tetrahydro-1H-carbazole-1-carboxylic acid] | > 1 µM
CC(=O)n1c2c(c3cc(Br)ccc31)CCCC2 [Compound 86, 1-(6-Bromo-1,2,3,4-tetrahydro-carbazol-9-yl)-ethanone] | > 1 µM
O/N=C1\CCCc2c1[nH]c1ccc(Br)cc21 [Compound 87, 6-Bromo-2,3,4,9-tetrahydro-carbazol-1-one oxime] | > 1 µM
Cn1c2c(c3cc(Br)ccc31)CCCC2=O [Compound 88, 6-Bromo-9-methyl-2,3,4,9-tetrahydro-carbazol-1-one] | > 1 µM
NC1CCCc2c1[nH]c1ccc(Br)cc21 (centres unmarked) [Compound 89, 6-Bromo-2,3,4,9-tetrahydro-1H-carbazol-1-ylamine] | > 1 µM
CCOC(=O)C1CCCc2c1[nH]c1ccc(Br)cc21 (centres unmarked) [Compound 90, 6-Bromo-2,3,4,9-tetrahydro-1H-carbazole-1-carboxylic acid ethyl ester] | > 1 µM
O=C(Nc1ccccc1)C1CCCc2c1[nH]c1ccc(Br)cc21 (centres unmarked) [Compound 91, 6-Bromo-2,3,4,9-tetrahydro-1H-carbazole-1-carboxylic acid phenylamide] | > 1 µM
O/N=C1\CCCc2c1[nH]c1cc(Br)ccc21 [Compound 92, 7-Bromo-2,3,4,9-tetrahydro-carbazol-1-one oxime] | > 1 µM
O/N=C1\CCCc2c1[nH]c1ccc(Cl)cc21 [Compound 93] | > 1 µM
NC1CCCc2c1[nH]c1cc(Br)ccc21 (centres unmarked) [Compound 94, 7-Bromo-2,3,4,9-tetrahydro-1H-carbazol-1-ylamine; compound with methane] | > 1 µM
COc1ccc2[nH]c3c(c2c1)CCCC3N (centres unmarked) [Compound 95, 6-Methoxy-2,3,9-tetrahydro-1H-carbazol-1-ylamine] | > 1 µM
NC1CCCc2c1[nH]c1ccc(Cl)cc21 (centres unmarked) [Compound 96, 6-Chloro-2,3,4,9-tetrahydro-1H-carbazol-1-ylamine] | > 1 µM
O=C1CCCc2c1[nH]c1c(Br)cccc21 [Compound 97, 8-Bromo-2,3,4,9-tetrahydro-carbazol-1-one] | > 1 µM
O/N=C1\CCCc2c1[nH]c1c(Br)cccc21 [Compound 98, 8-Bromo-2,3,4,9-tetrahydro-carbazol-1-one oxime] | > 1 µM
NC1CCCc2c1[nH]c1c(Br)cccc21 (centres unmarked) [Compound 99, 8-Bromo-2,3,4,9-tetrahydro-1H-carbazol-1-ylamine] | > 1 µM
Cc1nnc(C2CCCc3c2[nH]c2ccc(Br)cc32)o1 (centres unmarked) [Compound 100, 6-Bromo-1-(5-methyl-[1,3,4]oxadiazol-2-yl)-2,3,4,9-tetrahydro-1H-carbazole] | > 1 µM
c1ccc2c3c([nH]c2c1)C(Nn1cccc1)CCC3 (centres unmarked) [Compound 101, Pyrrol-1-yl-(2,3,4,9-tetrahydro-1H-carbazol-1-yl)-amine] | > 1 µM
